The data set concerns the target T1, Broad substrate specificity ATP-binding cassette transporter ABCG2 (Homo sapiens, UniProt Q9UNQ0).
T1 sequence (Q9UNQ0 whole entry): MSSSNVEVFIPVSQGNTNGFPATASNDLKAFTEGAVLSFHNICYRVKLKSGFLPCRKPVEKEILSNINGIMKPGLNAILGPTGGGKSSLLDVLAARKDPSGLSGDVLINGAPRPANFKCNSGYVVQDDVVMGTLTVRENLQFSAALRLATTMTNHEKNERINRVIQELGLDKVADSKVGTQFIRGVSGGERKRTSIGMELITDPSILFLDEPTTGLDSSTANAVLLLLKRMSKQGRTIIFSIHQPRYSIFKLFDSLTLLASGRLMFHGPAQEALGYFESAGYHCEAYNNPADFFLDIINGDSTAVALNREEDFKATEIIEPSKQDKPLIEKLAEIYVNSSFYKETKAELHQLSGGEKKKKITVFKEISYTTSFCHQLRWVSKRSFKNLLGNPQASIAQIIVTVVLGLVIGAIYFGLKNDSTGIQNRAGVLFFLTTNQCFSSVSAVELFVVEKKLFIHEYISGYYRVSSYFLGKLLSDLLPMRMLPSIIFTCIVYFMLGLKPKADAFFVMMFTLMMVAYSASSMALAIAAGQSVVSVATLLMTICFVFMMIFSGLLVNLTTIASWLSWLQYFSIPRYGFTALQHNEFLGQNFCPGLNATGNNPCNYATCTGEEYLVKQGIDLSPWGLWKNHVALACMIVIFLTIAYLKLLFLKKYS
Description: TP_TRANSPORTER: drug resistance in BCRP-expressing PA317 cells. It counts as functional, cell-based. To be noted: mouse.

Consider `O=C1c2c(O)ccc(O)c2C(=O)c2c(NCCNCCO)ccc(NCCNCCO)c21` [MITOXANTRONE], for which the Activity entry was “substrate []”.
Under `COc1ccc2c3c([nH]c2c1)[C@H](C=C(C)C)N1C(=O)[C@@H]2CCCN2C(=O)[C@@H]1C3` [FUMITREMORGIN] stands “inhibitor []”; under `C[C@]12CC[C@@H]3c4ccc(O)cc4CC[C@H]3[C@@H]1CCC2=O` [ESTRONE], “inhibitor []”.
As for `CCc1c2c(nc3ccc(O)cc13)-c1cc3c(c(=O)n1C2)COC(=O)[C@]3(O)CC` [7-ETHYL-10-HYDROXYCAMPTOTHECIN], the Activity result was “substrate []”.

(Values after ChEMBL document CHEMBL2074406, “Single amino acid substitutions in the transmembrane domains of breast cancer resistance protein (BCRP) alter cross resistance patterns in transfectants” (Int J Cancer, 2003).)
